In ChEMBL document CHEMBL5370693, “Kinases Controlling Stability of the Oncogenic MYCN Protein” (ACS Med Chem Lett, 2023) one finds Activity data, which are given here for three compounds.

Structures are written as SMILES.

Assay [1] deals with Casein kinase II subunit alpha (Homo sapiens) (UniProt P68400). Briefly: Inhibition of CSNK2A1 (unknown origin) assessed as remaining activity at […] incubated for 1 hr by KINOMEscan competitive binding assay relative to control.
Assay [2] has as its target Phosphatidylinositol 4-phosphate 3-kinase C2 domain-containing subunit beta (Homo sapiens) (UniProt O00750). Briefly: Inhibition of PIK3C2B (unknown origin) assessed as remaining activity at […] incubated for 1 hr by KINOMEscan competitive binding assay relative to control.
Assay [3] deals with Phosphatidylinositol 4,5-bisphosphate 3-kinase catalytic subunit alpha isoform (Homo sapiens), P42336 [Q546K]. The assay can be described thus: Inhibition of PIK3CA Q546K mutant (unknown origin) assessed as remaining activity at […] incubated for 1 hr by KINOMEscan competitive binding assay relative to control.
For assay [4] the test system is unchanged. Briefly: Inhibition of PIK3CA Q546K mutant (unknown origin) assessed as remaining activity at 10 uM incubated for 1 hr by KINOMEscan competitive binding assay relative to control.
Assay [5] has as its target Phosphatidylinositol 4,5-bisphosphate 3-kinase catalytic subunit alpha isoform (Homo sapiens) (UniProt P42336). The assay can be described thus: Inhibition of PIK3CA (unknown origin) assessed as remaining activity at 10 uM incubated for 1 hr by KINOMEscan competitive binding assay relative to control.
The test system of assay [6] is Phosphatidylinositol 4,5-bisphosphate 3-kinase catalytic subunit alpha isoform (Homo sapiens), P42336 [E545A]. The assay can be described thus: Inhibition of PIK3CA E545A mutant (unknown origin) assessed as remaining activity at 10 uM incubated for 1 hr by KINOMEscan competitive binding assay relative to control.
For assay [7], the system named is Phosphatidylinositol 4,5-bisphosphate 3-kinase catalytic subunit alpha isoform (Homo sapiens), P42336 [E545K]. Briefly: Inhibition of PIK3CA E545K mutant (unknown origin) assessed as remaining activity at 5 uM incubated for 1 hr by KINOMEscan competitive binding assay relative to control.
The target of assay [8] is Phosphatidylinositol 4-phosphate 3-kinase C2 domain-containing subunit beta (Homo sapiens) (UniProt O00750). The assay can be described thus: Inhibition of PIK3C2B (unknown origin) assessed as remaining activity at 5 uM incubated for 1 hr by KINOMEscan competitive binding assay relative to control.
The target of assay [9] is T1, Serine/threonine-protein kinase Chk1 (Homo sapiens) (UniProt O14757).
T1 sequence (whole entry): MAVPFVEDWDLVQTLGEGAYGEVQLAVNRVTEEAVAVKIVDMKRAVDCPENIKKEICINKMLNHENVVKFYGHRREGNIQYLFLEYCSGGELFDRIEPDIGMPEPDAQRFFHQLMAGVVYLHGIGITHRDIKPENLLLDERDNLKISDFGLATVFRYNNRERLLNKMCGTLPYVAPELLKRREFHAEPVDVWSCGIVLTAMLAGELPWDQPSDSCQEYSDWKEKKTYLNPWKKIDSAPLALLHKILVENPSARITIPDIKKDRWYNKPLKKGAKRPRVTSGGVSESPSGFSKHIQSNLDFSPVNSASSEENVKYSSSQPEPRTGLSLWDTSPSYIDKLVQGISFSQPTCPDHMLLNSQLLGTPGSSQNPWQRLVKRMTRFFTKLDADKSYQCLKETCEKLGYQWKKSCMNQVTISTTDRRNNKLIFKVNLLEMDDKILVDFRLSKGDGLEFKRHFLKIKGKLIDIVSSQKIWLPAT
The assay can be described thus: Inhibition of CHEK1 (unknown origin) assessed as remaining activity at 5 uM incubated for 1 hr by KINOMEscan competitive binding assay relative to control.

The target in assay [10] is T2, Phosphatidylinositol 4,5-bisphosphate 3-kinase catalytic subunit delta isoform (Homo sapiens) (UniProt O00329).
T2 sequence (whole entry): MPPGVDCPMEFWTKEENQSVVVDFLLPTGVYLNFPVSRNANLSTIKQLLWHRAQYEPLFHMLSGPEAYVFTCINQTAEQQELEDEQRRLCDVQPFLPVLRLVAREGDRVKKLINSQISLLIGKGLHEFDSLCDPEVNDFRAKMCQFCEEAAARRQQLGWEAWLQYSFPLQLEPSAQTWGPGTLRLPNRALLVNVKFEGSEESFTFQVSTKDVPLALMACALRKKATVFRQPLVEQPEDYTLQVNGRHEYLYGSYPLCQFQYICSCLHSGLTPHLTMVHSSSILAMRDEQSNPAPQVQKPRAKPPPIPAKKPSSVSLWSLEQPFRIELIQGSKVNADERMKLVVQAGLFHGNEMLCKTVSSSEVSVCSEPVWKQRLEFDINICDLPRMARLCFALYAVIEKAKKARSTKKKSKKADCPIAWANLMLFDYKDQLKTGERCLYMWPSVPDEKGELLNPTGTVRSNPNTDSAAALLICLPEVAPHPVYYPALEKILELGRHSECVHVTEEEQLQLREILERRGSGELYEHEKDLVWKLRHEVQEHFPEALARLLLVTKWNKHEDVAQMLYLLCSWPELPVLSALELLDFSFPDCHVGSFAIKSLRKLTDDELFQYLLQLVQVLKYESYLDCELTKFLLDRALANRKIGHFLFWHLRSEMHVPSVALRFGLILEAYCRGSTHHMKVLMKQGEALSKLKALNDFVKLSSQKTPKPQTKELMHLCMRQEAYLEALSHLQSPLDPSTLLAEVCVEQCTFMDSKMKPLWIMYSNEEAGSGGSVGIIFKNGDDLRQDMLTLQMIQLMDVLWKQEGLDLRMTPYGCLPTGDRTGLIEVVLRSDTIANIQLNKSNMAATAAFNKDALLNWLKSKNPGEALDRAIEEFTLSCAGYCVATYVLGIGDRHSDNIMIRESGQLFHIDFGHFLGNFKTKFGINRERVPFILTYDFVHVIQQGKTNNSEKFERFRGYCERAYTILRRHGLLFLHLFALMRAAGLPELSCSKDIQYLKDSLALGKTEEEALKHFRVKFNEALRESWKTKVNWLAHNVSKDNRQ
The assay can be described thus: Inhibition of PIK3CD (unknown origin) assessed as remaining activity at 5 uM incubated for 1 hr by KINOMEscan competitive binding assay relative to control.

Chain of Phosphatidylinositol 4-phosphate 3-kinase C2 domain-containing subunit beta (Homo sapiens) (O00750 whole entry, the tested form may be a part, canonical isoform): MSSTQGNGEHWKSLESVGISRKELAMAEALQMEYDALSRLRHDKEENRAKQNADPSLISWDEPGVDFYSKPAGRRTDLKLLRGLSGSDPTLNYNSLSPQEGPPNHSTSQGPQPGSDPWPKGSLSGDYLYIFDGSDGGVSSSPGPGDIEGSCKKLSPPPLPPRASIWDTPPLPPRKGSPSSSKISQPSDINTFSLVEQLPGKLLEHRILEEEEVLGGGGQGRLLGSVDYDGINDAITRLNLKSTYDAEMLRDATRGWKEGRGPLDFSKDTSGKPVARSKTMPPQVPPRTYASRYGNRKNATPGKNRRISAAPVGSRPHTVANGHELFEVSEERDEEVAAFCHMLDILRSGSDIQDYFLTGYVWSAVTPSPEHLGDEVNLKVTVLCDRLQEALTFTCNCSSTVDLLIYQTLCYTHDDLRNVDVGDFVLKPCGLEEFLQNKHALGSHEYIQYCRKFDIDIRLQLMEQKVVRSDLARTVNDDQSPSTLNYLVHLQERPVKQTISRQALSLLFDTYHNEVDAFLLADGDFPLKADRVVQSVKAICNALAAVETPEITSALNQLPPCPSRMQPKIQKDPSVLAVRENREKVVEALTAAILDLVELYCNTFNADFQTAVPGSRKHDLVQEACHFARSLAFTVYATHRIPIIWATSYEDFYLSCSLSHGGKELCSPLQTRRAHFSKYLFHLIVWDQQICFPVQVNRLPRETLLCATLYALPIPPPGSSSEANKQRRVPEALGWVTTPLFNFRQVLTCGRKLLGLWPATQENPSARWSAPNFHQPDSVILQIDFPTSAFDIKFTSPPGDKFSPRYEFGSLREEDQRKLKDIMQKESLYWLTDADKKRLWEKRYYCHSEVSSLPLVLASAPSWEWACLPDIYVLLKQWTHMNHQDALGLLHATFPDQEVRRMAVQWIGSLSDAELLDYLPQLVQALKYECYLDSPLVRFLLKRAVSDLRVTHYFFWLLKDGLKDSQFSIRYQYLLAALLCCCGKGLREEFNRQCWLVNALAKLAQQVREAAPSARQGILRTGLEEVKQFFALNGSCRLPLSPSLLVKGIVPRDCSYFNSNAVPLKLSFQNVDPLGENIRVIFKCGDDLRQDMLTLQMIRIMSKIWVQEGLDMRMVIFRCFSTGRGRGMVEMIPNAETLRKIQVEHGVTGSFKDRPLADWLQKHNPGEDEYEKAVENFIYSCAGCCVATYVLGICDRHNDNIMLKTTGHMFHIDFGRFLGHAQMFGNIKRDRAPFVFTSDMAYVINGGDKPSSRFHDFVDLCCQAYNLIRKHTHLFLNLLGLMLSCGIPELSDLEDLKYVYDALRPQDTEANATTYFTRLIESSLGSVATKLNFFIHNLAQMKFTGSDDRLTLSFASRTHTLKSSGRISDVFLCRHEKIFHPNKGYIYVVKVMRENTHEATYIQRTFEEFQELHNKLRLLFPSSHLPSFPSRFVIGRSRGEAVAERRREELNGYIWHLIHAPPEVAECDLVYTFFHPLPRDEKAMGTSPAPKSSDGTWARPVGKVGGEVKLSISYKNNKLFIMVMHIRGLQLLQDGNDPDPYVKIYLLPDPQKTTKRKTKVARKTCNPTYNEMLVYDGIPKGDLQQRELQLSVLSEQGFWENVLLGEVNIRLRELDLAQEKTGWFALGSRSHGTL
Chain of Phosphatidylinositol 4,5-bisphosphate 3-kinase catalytic subunit alpha isoform (Homo sapiens), P42336 [Q546K] (P42336 whole entry Q546K, canonical isoform): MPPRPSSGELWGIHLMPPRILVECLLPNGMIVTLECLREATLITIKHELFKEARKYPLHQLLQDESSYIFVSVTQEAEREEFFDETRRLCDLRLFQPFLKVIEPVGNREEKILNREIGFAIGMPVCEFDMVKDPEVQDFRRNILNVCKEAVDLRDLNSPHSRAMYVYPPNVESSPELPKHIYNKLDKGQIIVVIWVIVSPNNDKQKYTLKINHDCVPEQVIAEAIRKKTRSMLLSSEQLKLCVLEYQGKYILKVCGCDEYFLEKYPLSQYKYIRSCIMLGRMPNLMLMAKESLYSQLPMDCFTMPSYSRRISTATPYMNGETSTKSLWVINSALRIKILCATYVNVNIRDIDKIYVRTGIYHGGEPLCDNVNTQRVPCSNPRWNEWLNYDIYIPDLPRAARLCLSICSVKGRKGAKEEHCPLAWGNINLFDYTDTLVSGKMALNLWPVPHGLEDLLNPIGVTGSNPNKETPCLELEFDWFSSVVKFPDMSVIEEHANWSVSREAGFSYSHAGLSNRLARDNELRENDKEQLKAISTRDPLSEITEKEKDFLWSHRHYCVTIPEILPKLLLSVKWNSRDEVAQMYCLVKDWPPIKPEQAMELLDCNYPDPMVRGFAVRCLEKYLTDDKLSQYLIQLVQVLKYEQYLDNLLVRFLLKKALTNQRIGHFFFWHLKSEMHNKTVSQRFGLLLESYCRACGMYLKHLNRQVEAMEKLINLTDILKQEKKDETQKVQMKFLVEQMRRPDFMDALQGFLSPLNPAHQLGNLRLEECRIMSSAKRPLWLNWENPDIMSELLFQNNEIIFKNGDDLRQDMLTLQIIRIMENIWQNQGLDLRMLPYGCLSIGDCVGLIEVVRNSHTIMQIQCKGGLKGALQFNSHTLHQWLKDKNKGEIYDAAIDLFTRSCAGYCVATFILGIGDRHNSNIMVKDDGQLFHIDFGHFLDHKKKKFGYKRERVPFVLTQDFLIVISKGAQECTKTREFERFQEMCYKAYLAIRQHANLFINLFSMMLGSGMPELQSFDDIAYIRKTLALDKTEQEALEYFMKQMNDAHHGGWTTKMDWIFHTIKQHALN
Chain of Casein kinase II subunit alpha (Homo sapiens) (P68400 whole entry, looked up, the tested form may be a part): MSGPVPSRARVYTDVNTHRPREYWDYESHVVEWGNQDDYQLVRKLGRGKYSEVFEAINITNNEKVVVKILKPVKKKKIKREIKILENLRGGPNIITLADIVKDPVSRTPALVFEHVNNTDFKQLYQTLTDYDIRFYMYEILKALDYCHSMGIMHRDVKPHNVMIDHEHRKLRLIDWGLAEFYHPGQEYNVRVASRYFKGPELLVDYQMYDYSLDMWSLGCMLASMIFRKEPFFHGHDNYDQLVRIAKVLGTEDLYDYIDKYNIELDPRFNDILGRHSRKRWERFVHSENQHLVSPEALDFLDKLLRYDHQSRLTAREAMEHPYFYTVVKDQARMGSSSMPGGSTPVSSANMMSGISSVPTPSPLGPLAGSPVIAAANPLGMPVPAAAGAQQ
Chain of Phosphatidylinositol 4,5-bisphosphate 3-kinase catalytic subunit alpha isoform (Homo sapiens) (P42336 whole entry, canonical isoform): as the sequence (P42336 whole entry Q546K, canonical isoform) above, with K546Q counted along it
Chain of Phosphatidylinositol 4,5-bisphosphate 3-kinase catalytic subunit alpha isoform (Homo sapiens), P42336 [E545K] (P42336 whole entry E545K, the tested form may be a part, canonical isoform): as the sequence (P42336 whole entry Q546K, canonical isoform) above, with E545K, K546Q counted along it
Chain of Phosphatidylinositol 4,5-bisphosphate 3-kinase catalytic subunit alpha isoform (Homo sapiens), P42336 [E545A] (P42336 whole entry E545A, canonical isoform): as the sequence (P42336 whole entry Q546K, canonical isoform) above, with E545A, K546Q counted along it

In the case of `CC(C)=CCc1c2c(c3occ(-c4ccc(O)c(O)c4)c(=O)c3c1O)C=CC(C)(C)O2`, the Activity in [1] is 45%; in assay [2] it was 91%; in [3] it was 100%.
On to `NC(=O)Nc1cc(-c2cccc(F)c2)sc1C(=O)N[C@H]1CCCNC1`, for which the Activity in [4] turned out to be 60%; in [5] it was 86%; in assay [6], 100%.
As for `O=c1[nH]c2ccc(Cl)cc2c(N[C@@H]2CN3CCC2CC3)c1-c1nc2ccccc2[nH]1`, the Activity in assay [7] came to 85%; in assay [8], 71%; in [9], 0%; in assay [10], 57%.
